# Test results taken from article PMC10391911, “Differential effects of two phosphodiesterase 4 inhibitors against lipopolysaccharide-induced neuroinflammation in mice” (BMC Neuroscience, 2023).
# Like-named read-outs stand apart in the source and are kept apart here.
# Columns and labels:
# [1] = test system: TNF-α, IL-1β, and IL-6 levels in plasma and brain; assay: In vivo LPS-induced neuroinflammation mouse model, cytokine ELISA; details: 10 mg/kg orally once daily for 4 days, LPS 10 mg/kg i.p., samples 8 h after LPS
# Protocol: Eight-week-old male C57BL/6J mice (body weight 22–26 g) were purchased from Orient Bio Inc. (Seongnam, Korea). […] All procedures complied with the Guidelines for the Care and Use of Laboratory Animals of the Animal Ethics Committee of the Korea Research Institute of Chemical Technology.
# The tested compounds were solved in the vehicle (10% N-methyl-2-pyrrolidone, 60% polyethylene glycol 400, 30% distilled water) immediately before the experiment. The dosing volume was 5 mL/kg. […] On day 4, all groups (except the control) received an intraperitoneal injection of LPS (10 mg/kg) 2 h after drug administration. Finally, 8 h after LPS injection, the mice were sacrificed via CO2 inhalation. Plasma and brain samples were collected and stored at − 80℃ until analysis.
# Frozen brain tissues in cold 0.1 M phosphate-buffered saline were homogenized using the FastPrep-24™ Classic homogenizer (MP Biomedicals, Irvine, California, USA). The homogenates were centrifuged at 15,000 rpm for 10 min, and the supernatants were collected.
# To measure TNF-α, IL-1β, and IL-6 levels in each sample, ELISA was performed using mouse TNF-α, IL-1β, and IL-6 ELISA kits (R&D Systems). The absorbance was measured at 450 nm using a spectrophotometer (BioTek).
# [2] = test system: NO production in LPS-induced BV-2 cells; assay: NO production in LPS-induced BV-2 cells (Griess test); assay type: cell-based, murine; details: 1 h pretreatment, LPS 1 µg/mL 24 h; for Effect on NO levels: up to 10 µM
# Protocol: BV-2 cells were seeded at a density of 5 × 10^5 cells/mL in 96-well plates. […] Finally, 1 µg/mL LPS was added to the cell culture medium for 24 h to induce inflammation.
# [3] = test system: NF-κB signaling pathway in LPS-exposed BV-2 cells; assay: Western blotting of p-NF-κB and NF-κB in LPS-exposed BV-2 cells; assay type: cell-based, murine; details: 1 and 10 µM, LPS 1 µg/mL 4 h
# Protocol: Then the cells were incubated with or without LPS (1 µg/mL) for 4 h. Cells were harvested using trypsin and washed twice in cold Dulbecco’s phosphate-buffered saline and lysed with RIPA lysis buffer (Elpis, Daejeon, Korea) containing protease and phosphatase inhibitor mini tablets (Thermo Fisher, Waltham, MA, USA). Protein lysate concentrations were determined using the Pierce BCA Protein Assay kit (Thermo Fisher). Protein samples (5 µg) were separated via 5–20% sodium dodecyl sulfate polyacrylamide gel electrophoresis and then transferred to polyvinylidene fluoride membranes (ATTO, Tokyo, Japan). After transfer, membranes were blocked using Tris-buffered saline containing 0.5% Tween 20 and 5% bovine serum albumin at room temperature for 1 h. The membranes were incubated overnight at 4℃ with primary antibodies at a dilution ratio of 1:1000. […] Subsequently, blots were detected using horseradish peroxidase-conjugated secondary antibodies (1:10,000 dilution) and the ECL substrate (Millipore Corporation, Billerica, MA, USA) at room temperature for 1 h. Protein expression levels were measured using WSE-6100 LuminoGraph (ATTO). The bands were analyzed using the ImageJ software (NIH, Bethesda, MD, USA).
# [4] = in vivo; details: male, C57BL/6J, mouse; for AUC(0-t): AUClast
# Protocol: Plasma samples were obtained via centrifugation at 15,000 rpm for 3 min and stored at − 20℃ until LC-MS/MS analysis.
# The brain-to-plasma ratio (Kp) and unbound Kp (Kp,uu) were calculated as follows: [drawing 5] [drawing 6]
# Pharmacokinetic parameters were calculated via non-compartmental analysis using Phoenix WinNonlin, ver. 8.3 (Pharsight, Mountain View, CA, USA).
# [5] = Brain disposition in mice
# Protocol: Residual blood in the brain was removed from circulation via cardiac perfusion with saline solution.
# For both plasma and brain samples, 30 µL each sample was vortexed with 270 µL acetonitrile containing disopyramide as the internal standard for protein precipitation.
# [6] = In vitro protein-binding assay using equilibrium dialysis, brain homogenate; assay type: in vitro ADME, mouse
# Protocol: A rapid equilibrium dialysis device with inserts (cat no. #90,112, Thermo Fisher) was used for the protein-binding assay. […] The samples were incubated for 4 h in a shaking incubator (37℃, 300 rpm). After incubation, 50 µL buffer from the white chamber was added to 50 µL fresh mouse plasma or brain homogenate, and 50 µL dosing solution from the red chamber was added to 50 µL fresh buffer to adjust for matrix effects. To each sample, 200 µL ice-cold acetonitrile with internal standard was added. The samples were centrifuged at 4,000 rpm for 20 min and the supernatants were collected for LC-MS/MS analysis. The unbound fraction of drug (Fu) in plasma and brain tissue was calculated as follows based on previous studies: [drawing 3] [drawing 4]
# where Cprotein-free compartment and Cprotein-containing compartment, D, and dh are the concentrations of drug in the buffer chamber and drug solution chamber, dilution factor, and diluted brain homogenate, respectively.
# The values were calculated using the measured diluted free fractions and the respective dilution factor.
# [7] = test system: MDR1-MDCK monolayer; assay: Bidirectional MDR1-MDCK monolayer permeability; assay type: in vitro ADME, canine; details: for P-gp substrate: ER > 2 indicates drug efflux
# Protocol: MDR1-MDCK cells were seeded at a density of 2 × 10^5 cells/well on the apical side of 24-transwell plates with a pore size of 0.4 μm (Corning Costar, Cambridge, MA, USA). Each basolateral chamber was filled with 0.6 mL medium, and each apical side with 0.2 mL medium containing cells. The plates seeded with cells were incubated for 3 days. The culture medium was replaced on both the apical and basolateral sides 2 days after seeding. Before the experiment, the transepithelial electrical resistance was measured using an epithelial voltohmmeter (Millicell ERS-2; Millipore), where 300 ohms or greater was considered to indicate the formation of a cell monolayer with tight junctions. The cells were rinsed twice with pre-warmed Hank’s balanced salt solution (HBSS) containing 10 mM of HEPES and were incubated in a CO2 incubator for 30 min. […] After equilibration, the solutions containing the test or reference compounds were added to either the apical side (0.2 mL) or basolateral side (0.6 mL) of the wells, and the plates were incubated in a shaking incubator (37℃, 200 rpm). Samples were collected every 30 min. To test for apical-to-basolateral flow, 110 µL sample was removed from each basolateral chamber; to test for basolateral-to-apical flow, 110 µL sample was taken from each apical chamber; then, each well was replenished with 110 µL fresh HBSS. To each sample, 50 µL internal standard (5 ng/mL disopyramide) in water was added. Samples were prepared for analysis using solid-phase extraction, and the sample concentrations were analyzed via LC-MS/MS. The permeability of the tested compounds was evaluated by calculating the apparent permeability coefficient (Papp, cm/s) and the efflux ratio (ER). The Papp was calculated as follows: [drawing 1] where dQ/dt is the initial permeability rate of the compound across the cells (ng/s), A is the surface area of the cell monolayer (cm^2), and C0 is the initial concentration of the donor side (ng/mL). From the apical-to-basolateral and basolateral-to-apical Papp values, the ER was calculated as follows: [drawing 2]
# [8] = C57BL/6J, mouse, brain, po, 10 mg/kg, 4 h after oral 10 mg/kg, read-out: Concentration, Brain
# [9] = C57BL/6J, mouse, brain, po, 10 mg/kg, 4 h after oral 10 mg/kg, read-out: Unbound brain concentration
# [10] = C57BL/6J, mouse, brain, po, 10 mg/kg, oral 10 mg/kg, converted from ng/g, read-out: Unbound brain concentration
# [11] = C57BL/6J, mouse, plasma, po, 10 mg/kg, 4 h after oral 10 mg/kg, read-out: Concentration, Plasma
# [12] = C57BL/6J, mouse, plasma, po, 10 mg/kg, 4 h after oral 10 mg/kg, read-out: Unbound plasma concentration
SMILES,"Effect on TNF-α, IL-1β, and IL-6 levels in plasma and brain [1]",Effect on NO levels [2],Effect on LPS-induced increase in p-NF-κB expression [3],bioavailability [4] [%],"AUC(0-inf) ([4]; iv, 1 mg/kg) [ng·h/mL]","clearance ([4]; iv, 1 mg/kg) [mL/min/kg]","half-life ([4]; iv, 1 mg/kg) [h]","AUC(0-t) ([4]; iv, 1 mg/kg) [ng·h/mL]","AUC(0-inf) ([4]; po, 10 mg/kg) [ng·h/mL]","Cmax ([4]; po, 10 mg/kg) [ng/mL]","Tmax ([4]; po, 10 mg/kg) [h]","half-life ([4]; po, 10 mg/kg) [h]","AUC(0-t) ([4]; po, 10 mg/kg) [ng·h/mL]","concentration at 4 h [5, 8] [ng/g]","concentration at 4 h [5, 9] [ng/g]","concentration at 4 h [5, 10] [nM]","concentration at 4 h [5, 11] [ng/mL]","concentration at 4 h [5, 12] [ng/mL]",Permeability class according to FDA guidelines [7],P-gp substrate [7],other results
O=C(Nc1c(Cl)cncc1Cl)c1ccc(OC(F)F)c(OCC2CC2)c1 [roflumilast],reduced,dose-dependent decrease,prevented the LPS-induced increase in p-NF-κB expression in a concentration-dependent manner,2.3,5070 ± 1100,3.33,3.74 ± 0.71,4890 ± 940,1290 ± 540,150 ± 70,2.33 ± 1.53,7.13 ± 2.86,1130 ± 540,18.2 ± 12.9,0.07,0.17,30.6 ± 14.2,0.39,high,not P-gp substrates,"IC50 ([2]; Mus musculus, BV-2, read-out: IC50 against NO): 312 nM; fraction unbound at 4 h, 5 µM ([6]; mouse, brain homogenate): 0.0037 ± 0.002"
O=C(O)Cc1ccc(Cc2cc(-c3cccc(Cl)c3)nc(C(F)(F)F)c2)cc1 [zatolmilast],did not reduce,did not have this effect,did not,3.7,86900 ± 10900,0.167,6.35 ± 0.62,81900,62000 ± 31800,2530 ± 860,2 ± 1.73,20.4 ± 6.77,30300 ± 9640,1200 ± 345,1.7,4.2,3630 ± 890,9.57,moderately high,not P-gp substrates,"Vd ([4]; iv, 1 mg/kg): 0.07 ± 0.01 L/kg; Brain Kp,uu ([5]; 4 h after oral 10 mg/kg, 10 mg/kg): 0.18; Kp at 4 h ([5]; C57BL/6J, mouse, brain and plasma, 4 h after oral 10 mg/kg): 0.33; Kp uu at 4 h ([5]; C57BL/6J, mouse, brain and plasma, po, 10 mg/kg, 4 h after oral 10 mg/kg): < 0.18; fraction unbound at 4 h, 5 µM ([6]; mouse blank brain homogenate, 5 µM, mouse brain homogenate, 4 h dialysis, read-out: Fu, Brain): 0.0014 ± 0.0002; Efflux ratios (ERs) ([7]; over 3, 10, and 30 µM): < 2.0"
